Test results from patent publication US10358446B2, “Bruton's tyrosine kinase inhibitors” (Zibo Biopolar Changsheng Pharmaceutical Co. Ltd., priority 2015, dated 2019).

What follows are compounds tested against BTK (Homo sapiens (Human), UniProt Q06187) (assay: Btk kinase assay (HTRF)). Conditions: [ATP]=80 μM, BTK=3.4 nM; read-out: BTK Inhibition.
Format: biochemical
Procedure, shortened: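 HTRF kinase read-out (665/615 nm ratio, excitation 330 nm) after EDTA quench and 1 h detection incubation. Reaction: 3.4 nM BTK, ATP 80 μM, peptide substrate 1 μM, compound, HEPES pH 7.0 buffer, 1 h; IC50 derived using uninhibited and enzyme-free controls.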

BTK, sequence (Q06187 whole entry, species assumed): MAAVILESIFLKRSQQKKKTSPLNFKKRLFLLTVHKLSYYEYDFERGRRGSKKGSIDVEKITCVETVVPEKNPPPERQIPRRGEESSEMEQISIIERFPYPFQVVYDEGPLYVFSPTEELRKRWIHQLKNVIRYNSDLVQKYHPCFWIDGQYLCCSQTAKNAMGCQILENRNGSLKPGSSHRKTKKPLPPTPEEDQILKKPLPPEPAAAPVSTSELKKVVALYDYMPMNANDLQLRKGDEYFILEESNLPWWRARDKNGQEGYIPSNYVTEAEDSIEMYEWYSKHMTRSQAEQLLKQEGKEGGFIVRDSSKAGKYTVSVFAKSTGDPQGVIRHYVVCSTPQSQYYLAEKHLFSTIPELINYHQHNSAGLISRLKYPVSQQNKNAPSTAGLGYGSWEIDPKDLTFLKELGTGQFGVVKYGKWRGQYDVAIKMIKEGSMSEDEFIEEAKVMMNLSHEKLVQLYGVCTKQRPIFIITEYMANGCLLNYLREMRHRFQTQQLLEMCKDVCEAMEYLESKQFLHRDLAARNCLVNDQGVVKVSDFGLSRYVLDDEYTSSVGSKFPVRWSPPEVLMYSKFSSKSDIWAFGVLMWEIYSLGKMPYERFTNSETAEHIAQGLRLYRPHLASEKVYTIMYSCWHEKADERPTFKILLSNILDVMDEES

Structure (SMILES)	IC50
C=CC(=O)N1CC[C@@H](n2c(=O)n(-c3ccc(Oc4ccc(Cl)c(Cl)c4)c(Cl)c3)c3cnccc32)C1 [Example 44, (R)-1-(1-acryloylpyrrolidin-3-yl)-3-(3-chloro-4-(3,4-dichlorophenoxy)phenyl)-1H-imidazo[4,5-c]pyridin-2(3H)-one]	10 to 100 nM
C=CC(=O)N1CC[C@@H](n2c(=O)n(-c3ccc(Oc4ccc(C(F)(F)F)cc4)cc3)c3cnccc32)C1 [Example 36, (R)-1-(1-acryloylpyrrolidin-3-yl)-3-(4-(4-(trifluoromethyl)phenoxy)phenyl)-1H-imidazo[4,5-c]pyridin-2(3H)-one]	100 to 1000 nM
C=CC(=O)N1CC[C@@H](n2c(=O)n(-c3ccc(OCc4ccccn4)c(Cl)c3)c3cnccc32)C1 [Example 204, (R)-1-(1-acryloylpyrrolidin-3-yl)-3-(3-chloro-4-(pyridin-2-ylmethoxy)phenyl)-1H-imidazo[4,5-c]pyridin-2(3H)-one]	100 to 1000 nM
C=CC(=O)N1CC[C@@H](n2c(=O)n(-c3ccc(Oc4ccc(Cl)c(Cl)c4)cc3)c3cnccc32)C1 [Example 37, (R)-1-(1-acryloylpyrrolidin-3-yl)-3-(4-(3,4-dichlorophenoxy)phenyl)-1H-imidazo[4,5-c]pyridin-2(3H)-one]	100 to 1000 nM
C=CC(=O)Nc1cccc(-n2c(=O)n(-c3ccc(C(=O)N4CCOCC4)cc3)c3cnccc32)c1 [Example 253, N-(3-(3-(4-(morpholine-4-carbonyl)phenyl)-2-oxo-2,3-dihydro-1H-imidazo[4,5-c]pyridin-1-yl)phenyl)acrylamide]	1000 to 10000 nM
C=CC(=O)Nc1cccc(-n2c(=O)n(-c3ccc(Oc4cccc(OC)c4)cc3)c3cnccc32)c1 [Example 158, N-(3-(3-(4-(3-methoxyphenoxy)phenyl)-2-oxo-2,3-dihydro-1H-imidazo[4,5-c]pyridin-1-yl)phenyl) acrylamide]	10 to 100 nM
C=CC(=O)Nc1cccc(-n2c(=O)n(-c3ccc(OCc4ccccc4Cl)cc3)c3cnccc32)c1 [Example 231, N-(3-(3-(4-((2-chlorobenzyl)oxy)phenyl)-2-oxo-2,3-dihydro-1H-imidazo[4,5-c]pyridin-1-yl)phenyl)acrylamide]	10 to 100 nM
C=CC(=O)N1CCC[C@@H](n2c(=O)n(-c3ccc(Oc4cccc(OC)c4)cc3)c3cnccc32)C1 [Example 118, (R)-1-(1-acryloylpiperidin-3-yl)-3-(4-(3-methoxyphenoxy)phenyl)-1H-imidazo[4,5-c]pyridin-2(3H)-one]	10 to 100 nM
C=CC(=O)Nc1cccc(-n2c(=O)n(-c3cccc(Oc4ccccc4OC)c3)c3cnccc32)c1 [Example 89, N-(3-(3-(3-(2-methoxyphenoxy)phenyl)-2-oxo-2,3-dihydro-1H-imidazo[4,5-c]pyridin-1-yl)phenyl)acrylamide]	10 to 100 nM
C=CC(=O)N1CC[C@@H](n2c(=O)n(-c3ccc(OCc4ccc(Cl)cc4F)cc3)c3cnccc32)C1 [Example 244, (R)-1-(1-acryloylpyrrolidin-3-yl)-3-(4-((4-chloro-2-fluorobenzyl)oxy)phenyl)-1H-imidazo[4,5-c]pyridin-2(3H)-one]	100 to 1000 nM
CC#CC(=O)N1CCC[C@@H](n2c(=O)n(-c3ccc(Oc4cccc(OC)c4F)cc3)c3cnccc32)C1 [Example 175, (R)-1-(1-(but-2-ynoyl)piperidin-3-yl)-3-(4-(2-fluoro-3-methoxyphenoxy)phenyl)-1H-imidazo[4,5-c]pyridin-2(3H)-one]	100 to 1000 nM
C=CC(=O)N1CCC[C@@H](n2c(=O)n(-c3ccc(Oc4cccc(F)c4OC)cc3)c3cnccc32)C1 [Example 140, (R)-1-(1-acryloylpiperidin-3-yl)-3-(4-(3-fluoro-2-methoxyphenoxy)phenyl)-1H-imidazo[4,5-c]pyridin-2(3H)-one]	100 to 1000 nM
CC#CC(=O)N1CC[C@@H](n2c(=O)n(-c3ccc(Oc4cccc(OC)c4F)cc3)c3cncc(C)c32)C1 [Example 173, (R)-1-(1-(but-2-ynoyl)pyrrolidin-3-yl)-3-(4-(2-fluoro-3-methoxyphenoxy)phenyl)-7-methyl-1H-imidazo[4,5-c] pyridin-2(3H)-one]	10 to 100 nM
C=CC(=O)N1CCC[C@@H](n2c(=O)n(-c3ccc(Oc4cccc(F)c4)cc3)c3cnccc32)C1 [Example 117, (R)-1-(1-acryloylpiperidin-3-yl)-3-(4-(3-fluorophenoxy)phenyl)-1H-imidazo [4,5-c]pyridin-2(3H)-one]	10 to 100 nM
C=CC(=O)N1CC[C@@H](n2c(=O)n(-c3ccc(Oc4cccc(Cl)c4Cl)cc3)c3cnccc32)C1 [Example 99, (R)-1-(1-acryloylpyrrolidin-3-yl)-3-(4-(2,3-dichlorophenoxy)phenyl)-1,3-dihydro-2H-imidazo[4,5-c]pyridin-2-one]	10 to 100 nM
C=CC(=O)N1CCC[C@@H](n2c(=O)n(-c3ccc(Oc4cccc(C)c4C)cc3)c3cnccc32)C1 [Example 58, (R)-1-(1-acryloylpiperidin-3-yl)-3-(4-(2,3-dimethylphenoxy)phenyl)-1H-imidazo[4,5-c]pyridin-2(3H)-one]	10 to 100 nM
C=CC(=O)Nc1cccc(-n2c(=O)n(-c3ccc(OCc4cccc(C(F)(F)F)c4)cc3)c3cnccc32)c1 [Example 240, N-(3-(2-oxo-3-(4-((3-(trifluoromethyl)benzyl)oxy)phenyl)-2,3-dihydro-1H-imidazo[4,5-c]pyridin-1-yl)phenyl)acrylamide]	10 to 100 nM
C=CC(=O)N1CC[C@@H](n2c(=O)n(-c3ccc(Oc4cccc(OC)c4Cl)cc3)c3cnccc32)C1 [Example 135, (R)-1-(1-acryloylpyrrolidin-3-yl)-3-(4-(2-chloro-3-methoxyphenoxy)phenyl)-1H-imidazo[4,5-c]pyridin-2(3H)-one]	10 to 100 nM
C=CC(=O)Nc1cccc(-n2c(=O)n(-c3ccc(NC(=O)c4cccc(C)c4)cc3)c3cnccc32)c1 [Example 267, N-(4-(1-(3-acrylamidophenyl)-2-oxo-1H-imidazo[4,5-c]pyridin-3(2H)-yl)phenyl)-3-methylbenzamide]	≥ 10000 nM
C=CC(=O)N1CC[C@@H](n2c(=O)n(-c3ccc(Oc4ccccc4)cc3)c3c(OC)nccc32)C1 [Example 182, (R)-1-(1-acryloylpyrrolidin-3-yl)-4-methoxy-3-(4-phenoxyphenyl)-1H-imidazo[4,5-c]pyridin-2(3H)-one]	≥ 10000 nM
C=CC(=O)Nc1cccc(-n2c(=O)n(-c3ccc(Oc4ccccc4)c(Cl)c3)c3cnccc32)c1 [Example 73, N-(3-(3-(3-chloro-4-phenoxyphenyl)-2-oxo-2,3-dihydro-1H-imidazo[4,5-c]pyridin-1-yl)phenyl)acrylamide]	10 to 100 nM
C=CC(=O)Nc1cccc(-n2c(=O)n(-c3ccc(OCc4cc(F)cc(F)c4)cc3)c3cnccc32)c1 [Example 219, N-(3-(3-(4-((3,5-difluorobenzyl)oxy)phenyl)-2-oxo-2,3-dihydro-1H-imidazo[4,5-c]pyridin-1-yl)phenyl)acrylamide]	100 to 1000 nM

Now from value to compound:

IC50	Structure (SMILES)
10 to 100 nM	C=CC(=O)Nc1cccc(-n2c(=O)n(-c3ccc(Oc4cccc(Cl)c4)cc3)c3cnccc32)c1 [Example 69, N-(3-(3-(4-(3-chlorophenoxy)phenyl)-2-oxo-2,3-dihydro-1H-imidazo[4,5-c]pyridin-1-yl)phenyl)acrylamide]
10 to 100 nM	C=CC(=O)N1CCCC1Cn1c(=O)n(-c2ccc(Oc3ccccc3)cc2)c2cnccc21 (centres unmarked) [Example 178, 1-(1-Acryloyl-pyrrolidin-2-ylmethyl)-3-(4-phenoxy-phenyl)-1,3-dihydro-imidazo [4,5-c]pyridin-2-one]
10 to 100 nM	C=CC(=O)N1CCC[C@@H](n2c(=O)n(-c3ccc(Oc4cccc(F)c4F)cc3)c3cnccc32)C1 [Example 61, (R)-1-(1-acryloylpiperidin-3-yl)-3-(4-(2,3-difluorophenoxy)phenyl)-1H-imidazo[4,5-c]pyridin-2(3H)-one]
100 to 1000 nM	C=CC(=O)N1CC[C@@H](n2c(=O)n(-c3ccc(Oc4ccc(Cl)cc4)cc3)c3cnccc32)C1 [Example 82, (R)-1-(1-acryloylpyrrolidin-3-yl)-3-(4-(4-chlorophenoxy)phenyl)-1H-imidazo[4,5-c]pyridin-2(3H)-one]
100 to 1000 nM	C=CC(=O)Nc1cccc(-n2c(=O)n(-c3ccc(Oc4ccc(OC)c(C)c4)cc3)c3cnccc32)c1 [Example 163, N-(3-(3-(4-(4-methoxy-3-methylphenoxy)phenyl)-2-oxo-2,3-dihydro-1H-imidazo[4,5-c]pyridin-1-yl)phenyl)acrylamide]
10 to 100 nM	C=CC(=O)N1CC[C@@H](n2c(=O)n(-c3ccc(Oc4cccc(OC)c4C)cc3)c3cnccc32)C1 [Example 143, (R)-1-(1-acryloylpyrrolidin-3-yl)-3-(4-(3-methoxy-2-methylphenoxy)phenyl)-1H-imidazo[4,5-c]pyridin-2(3H)-one]
100 to 1000 nM	C=CC(=O)Nc1cccc(-n2c(=O)n(-c3ccc(OCc4ccccn4)cc3)c3cnccc32)c1 [Example 196, N-(3-(2-oxo-3-(4-(pyridin-2-ylmethoxy)phenyl)-2,3-dihydro-1H-imidazo[4,5-c]pyridin-1-yl)phenyl)acrylamide]
10 to 100 nM	C=CC(=O)Nc1cccc(-n2c(=O)n(-c3cccc(Oc4cccc(C)c4)c3)c3cnccc32)c1 [Example 152, N-(3-(2-oxo-3-(3-(m-tolyloxy)phenyl)-2,3-dihydro-1H-imidazo[4,5-c]pyridin-1-yl)phenyl)acrylamide]
10 to 100 nM	C=CC(=O)N1CCC[C@@H](n2c(=O)n(-c3ccc(Oc4cccc(Cl)c4F)cc3)c3cnccc32)C1 [Example 59, (R)-1-(1-acryloylpiperidin-3-yl)-3-(4-(3-chloro-2-fluorophenoxy)phenyl)-1H-imidazo[4,5-c]pyridin-2(3H)-one]
10 to 100 nM	C=CC(=O)Nc1cccc(-n2c(=O)n(-c3ccc(OCc4cccc(F)c4)cc3)c3cnccc32)c1 [Example 222, N-(3-(3-(4-((3-fluorobenzyl)oxy)phenyl)-2-oxo-2,3-dihydro-1H-imidazo[4,5-c]pyridin-1-yl)phenyl)acrylamide]
